What was measured:
Type in all cases: in vivo, human
PICP, BSAP, NTX, DPD = assay: Example 4 population pharmacodynamic models of biochemical markers (PICP, BSAP, NTX, DPD)
Source text: Population pharmacodynamic models were developed individually for total lumber spine BMD, femoral neck BMD, procollagen 1 carboxy-terminal propeptide (PICP), bone specific alkaline phosphate (BSAP), urinary N-telopeptide (NTX), and urinary free deoxypyridinoline (DPD). These treatment-response models characterized change in the pharmacodynamic endpoints and identified significant patient factors influencing response to therapy.
The time course of biochemical marker response to LY333334 dose was extensively evaluated as part of the overall population pharmacodynamic analyses. Pharmacodynamic models were developed for four biochemical markers: PICP and BSAP (biochemical measures of bone formation); NTX and […] (biochemical measures of bone resorption). Patient-specific factors that explained some of the variability of each model were identified and included in the model. As an additional evaluation, the relationship between LY333334 exposure and PICP response was modeled. Finally, the biochemical markers were evaluated as potential indicators of response to therapy by modeling the relationship between a change in the biochemical endpoint after 1 month of treatment and the increase in spine and femoral neck BMD after 21 months of treatment. […] Additional patient-specific factors were identified, which further decreased the variability in this predictive model.
An extensive investigation was undertaken to evaluate the time course of biochemical markers of bone formation (PICP and BSAP) and resorption (NTX and DPD) during LY333334 therapy. The population pharmacodynamic evaluation of these biochemical markers included data from approximately 340 patients randomly assigned to receive LY333334 40 μg/day (n≅170) or LY333334 20 μg/day (n≅170). […] Pharmacodynamic models based on linear, exponential, and spline functions of time were evaluated. […] These models reflect the complex time course of change in the underlying processes of bone formation and bone resorption occurring throughout the skeleton in response to the anabolic action induced by LY333334.

[1] = system: BSAP and PICP serum levels, NTX urine levels; assay: Example 2 clinical trial of rhPTH(1-34) plus hormone replacement therapy vs HRT: bone markers; conditions: 40 μg/day PTH plus HRT
Protocol: • Number of Subjects: • rhPTH(1-34) plus hormone replacement therapy (HRT) (estrogen±progesterone): 122 enrolled, 91 finished. • Control, hormone replacement therapy (estrogen±progesterone) without PTH: 125 enrolled, 105 finished. • Diagnosis and Inclusion Criteria: Women aged 62±8 years, postmenopausal for 15±8 years, selected for a baseline spine bone mineral density of 0.9±0.15 and a T value of −1.8. • Dosage and Administration: • Test Product (blinded) • rhPTH(1-34): 40 μg/day, given subcutaneously plus hormone replacement therapy (estrogen±progesterone). Subjects continued their prestudy hormone replacement therapy, maintained an HRT regimen consistent with local medical practices, took continuous/combined estrogen and progestin therapy using oral Premarin (0.625 mg/day) and oral Provera (2.5 mg/day) (intact uterus), or took estrogen therapy using oral Premarin (0.625 mg/day) (without intact uterus). • Reference (Control) Therapy (Blinded) • Hormone replacement therapy (estrogen±progesterone). Subjects continued their prestudy hormone replacement therapy, maintained an HRT regimen consistent with local medical practices, took continuous/combined estrogen and progestin therapy using oral Premarin (0.625 mg/day) and oral Provera (2.5 mg/day) (intact uterus), or took estrogen therapy using oral Premarin (0.625 mg/day) (without intact uterus). • Duration of Treatment: • rhPTH(1-34): up to 18 months • Control: up to 18 months • Criteria for Evaluation: Spine x-ray, serum biological makers (calcium, bone-specific alkaline phosphatase procollagen I carboxy-terminal propeptide); urine markers (calcium, N-telopeptide, fee deoxypyridinoline); 1,25-dihydroxyvitamin D; bone mineral density: spine, hip, wrist, and total body.
Measures of BSAP, PICP, and NTX levels were determined for each patient through the course of therapy generally according to methods described above in Example 1.

postmenopausal women = assay: Pharmacokinetic/pharmacodynamic sigmoid Emax models (spine BMD, femoral neck BMD, PICP)
Source text: In order to explore the relationship between concentration and the effect on spine BMD, a pharmacokinetic/pharmacodynamic model was developed. This relationship was best described by a sigmoid Emax model with AUC50 estimated at 170 pg·hr/mL.
A pharmacokinetic/pharmacodynamic model was also developed for femoral neck BMD. The relationship was best described by a sigmoid Emax model with AUC50 estimated at 283 pg·hr/mL. […] Thus, the final pharmacodynamic model which included treatment group rather than systemic exposure, predicted the increase in hip BMD in a patient of average age (˜69 years), body weight (˜66 kg), and baseline NTX concentration (˜48 mmBCE/L) to be approximately 2.8% and 5.2% after 21 months of 20 μg/day and 40 μg/day therapy, respectively.
A pharmacokinetic/pharmacodynamic model was developed for the PICP response. […] Thus, LY333334 exposure was a less significant predictor of elevation in PICP concentrations than administered dose.

[2] = about 5-6 weeks following termination (18 months)

## CC[C@H](C)[C@H](NC(=O)[C@H](CCC(=O)O)NC(=O)[C@H](CO)NC(=O)[C@@H](NC(=O)[C@@H](N)CO)C(C)C)C(=O)N[C@@H](CCC(N)=O)C(=O)N[C@@H](CC(C)C)C(=O)N[C@@H](CCSC)C(=O)N[C@@H](Cc1cnc[nH]1)C(=O)N[C@@H](CC(N)=O)C(=O)N[C@@H](CC(C)C)C(=O)NCC(=O)N[C@@H](CCCCN)C(=O)N[C@@H](Cc1cnc[nH]1)C(=O)N[C@@H](CC(C)C)C(=O)N[C@@H](CC(N)=O)C(=O)N[C@@H](CO)C(=O)N[C@@H](CCSC)C(=O)N[C@@H](CCC(=O)O)C(=O)N[C@@H](CCCN=C(N)N)C(=O)N[C@H](C(=O)N[C@@H](CCC(=O)O)C(=O)N[C@@H](Cc1c[nH]c2ccccc12)C(=O)N[C@@H](CC(C)C)C(=O)N[C@@H](CCCN=C(N)N)C(=O)N[C@@H](CCCCN)C(=O)N[C@@H](CCCCN)C(=O)N[C@@H](CC(C)C)C(=O)N[C@@H](CCC(N)=O)C(=O)N[C@@H](CC(=O)O)C(=O)N[C@H](C(=O)N[C@@H](Cc1cnc[nH]1)C(=O)N[C@@H](CC(N)=O)C(=O)N[C@@H](Cc1ccccc1)C(=O)O)C(C)C)C(C)C [LY333334]
PICP, BSAP, NTX, DPD; 20 and 40 μg/day
  time of BSAP peak response after initiation of treatment: 6 months
  time of maximum PICP: ≤ 1 month
  time of peak urinary DPD concentrations after initiation of treatment: 6 months
PICP, BSAP, NTX, DPD; 40 vs 20 μg/day
  BSAP response in 40 μg/day group greater than 20 μg/day group: 73%
  DPD response in 40 μg/day group greater than 20 μg/day group: 83%
  NTX response in 40 μg/day group greater than 20 μg/day group: 87%
  PICP response in 40 μg/day group greater than 20 μg/day group: 94%
PICP, BSAP, NTX, DPD; about 1 month of therapy
  minimum increase in PICP level in the entire study population: at least 20 pM
PICP, BSAP, NTX, DPD; last observation while on therapy
  time of peak urinary NTX excretion: 12 months
[1]; FIG. 5
  percent change in PICP serum levels during treatment: reached a peak within about one or two months
[1]; FIG. 6
  percent change in NTX urine levels during treatment: increased steadily until about 6 months after treatment initiation and remained at about the same high level at 12 months
[1]; [2]
  BSAP level after termination of PTH treatment: maintained an elevated level
  PICP levels after termination of PTH treatment: PICP levels were the same as HRT controls
  percent change in NTX levels after termination of PTH treatment: had declined and approached levels similar to those observed in the control group
Postmenopausal women; 20 μg dose
  increase in PICP concentration at 1 month as % of the maximum effect: 70%
  increase in femoral neck BMD as % of the maximum effect: 56%
  increase in spine BMD as % of the maximum effect: 82%
Postmenopausal women; 40 μg dose
  increase in PICP concentration at 1 month as % of the maximum effect: 85%
  increase in femoral neck BMD as % of the maximum effect: 67%
  increase in spine BMD as % of the maximum effect: 92%
Postmenopausal women; PICP
  AUC50, sigmoid Emax model for PICP response: 239 pg·h/mL
Postmenopausal women; femoral neck BMD
  AUC50, sigmoid Emax model for femoral neck BMD: 283 pg·h/mL
Postmenopausal women; spine BMD
  AUC50, sigmoid Emax model for spine BMD: 170 pg·h/mL

— patent publication US20050255537A1, “Method for monitoring treatment with a parathyroid hormone” (priority 1999, published 2005)
